This is an account of results in paper PMC12195677, “In Vitro Effect of Ferruginol, Tanshinone, and Carnosol Analogues on the Proliferation of Three Breast Cancer Cell Lines” (Molecules, 2025).

In one data set the test system is MDA-MB231. The following applies: cited from earlier work; for TI (therapeutic index) MDA-MB231: EC50 BJ fibroblasts / EC50 MDA-MB231; for IC50: read-out: Cytotoxicity IC50, MDA-MB231, 72 h incubation, CellTiter-Glo, mean ± SD.
For a further data set, the system named is human BJ fibroblasts. The following applies: read-out: Cytotoxicity IC50, BJ; non-neoplastic human BJ fibroblasts, 72 h, CellTiter-Glo, mean ± SD; cited from earlier work.
Data set [1] relates to MDA-MB231 breast cancer cells. The experiment in a line: Cell morphology by brightfield microscopy. The class given is cell-based, Human. The following applies: 24 h treatment, brightfield 10×; 1 and 6 at 5 μM, 10 at 10 μM. The source says:
Brightfield microscopy images of MDA-MB231 breast cancer cells are indicated in Figure 6 to highlight the morphological changes that occur upon treatment with compounds 1, 6, and 10 as representative compounds. […] The precise mechanism of cell death for other compounds remained unclear.
Representative images were collected using 10× objective with a Leica DMi1 Microscope (Leica microsystems, Wetzlar, Germany). MDA-MB231 cells were imaged with a vehicle as the negative control, staurosporine as the positive control (2 μM), or compounds with results shown in representative images for 24 h.

For the next data set, the system named is SUM149. The following applies: cited from earlier work; for IC50: read-out: Cytotoxicity IC50, SUM149, 72 h incubation, CellTiter-Glo, mean ± SD. A general note: In ATP-based viability assays light output follows the ATP content of the culture.
A further data set concerns MCF07. The following applies: cited from earlier work; for TI (therapeutic index) MCF07: EC50 BJ fibroblasts / EC50 MCF07; for IC50: read-out: Cytotoxicity IC50, MCF07, 72 h incubation, CellTiter-Glo, mean ± SD.
For the next data set, the system named is SUM149 cells. The experiment in a line: Colony formation (clonogenic) assay, SUM149. The class given is cell-based, Human. The following applies: 10 μM. As for the experimental part:
Further evaluation of various promising compounds using breast cancer cells included analysis of colony-forming inhibition capabilities and investigations into their specific mechanistic pathways of action. Thus, the anchorage-dependent colony formation assay, also known as the clonogenic assay, was conducted. This method in cancer research evaluates the ability of single cells to grow into colonies when attached to a surface and can measure a cell’s ability to undergo “unlimited” division and form a colony (usually defined as ≥50 cells).
The clonogenic assay offers comprehensive insights into the compound’s overall efficacy and is regarded as the definitive method for assessing post-treatment reproductive cell death (both cytotoxic and cytostatic effects). The extended duration of the experiment simultaneously provides valuable data on the compounds’ stability over time, which are not detected in short-term viability assays. […] In the MDA-MB231 cellular model (Figure 3), the evaluated compounds successfully eliminated the cells’ capacity to establish colonies (for images, see Figures S3 and S4).
MDA-MB-231 (0.8 × 10^6 cells/well) and SUM-149 cells (1.5 × 10^6 cells/well) were plated on a 6-well plate. Two days later, cell media was changed to 5% FBS, and cells were incubated at 37 °C in a 5% CO2 atmosphere for 1 h before the vehicle (0.1% DMSO) or compound (5–10μM) was added. After 72 h of treatment, cells were trypsinized and reseeded at 800 cells/mL (MDA-MB231) and 1200 cells/mL (SUM149) per well in 6-well plates. After 10 days of culture, the media was removed from the wells and washed once with cold PBS. The colonies were stained with 5 mL of 1% Crystal Violet for 30 min. The dishes were fixed by methanol, rinsed with water three times, and air-dried, and the colonies were counted using ImageJ version 1.5.4 (NIH, Bethesda, MD, USA).

Data set [2] concerns several breast cancer cell lines. Set-up: method as in PMID 36831660. The following applies: range over the named compounds and cell lines (Table 1); cited from earlier work.

The term IC50 denotes the point on the concentration scale where inhibition reaches its midpoint. For `CC(C)C1=CC2=C(C(=O)C1=O)[C@@]1(C)CCC[C@@](C)(CN3C(=O)c4ccccc4C3=O)[C@@H]1CC2` [Compound 10], in the data set with MDA-MB231, the “TI (therapeutic index) MDA-MB231” value is given as 13. Moreover, the IC50 with MDA-MB231 was 2.8 ± 0.4 µM; in the data set on human BJ fibroblasts, 35.4 ± 5 µM; in the data set on SUM149, 1.5 ± 0.4 µM; in the data set on MCF07 it was 2.3 ± 1.1 µM. Besides, in data set [1], the “Morphological changes (early apoptosis)” value is recorded as “Membrane blebbing”. Moreover, the “TI (therapeutic index) SUM149” value in the data set with SUM149 (EC50 BJ fibroblasts / EC50 SUM149) was 24. For the same molecule, in the data set with SUM149 (conclusions, Table 1 values of these compounds ref 13), the “Effectiveness against SUM149 cell line (in words)” value was “notable effectiveness”. The “TI (therapeutic index) MCF07” value with MCF07 is 15. Moreover, the “Colony-forming ability of SUM149 cells” value in the data set with SUM149 cells is reported as “notable exceptions”. Besides, the therapeutic index range in data set [2] is given as 6–43.

Take `CC(C)c1cc2c(cc1O)[C@@]1(C)CCCC(C)(C)[C@@H]1CC2` [Compound 1, ferruginol]: the “TI (therapeutic index) MDA-MB231” value with MDA-MB231 is above 6. Besides, the IC50 was 8.3 ± 1.4 µM with MDA-MB231, above 50 µM in the data set with human BJ fibroblasts, above 50 µM with SUM149 and 19 ± 1.5 µM in the data set with MCF07. In addition, in data set [1], the “Morphological changes (early apoptosis)” value is listed as “Membrane blebbing”. The “TI (therapeutic index) MCF07” value with MCF07 was above 3. Besides, the “Colony-forming ability of SUM149 cells” value with SUM149 cells is reported as “notable exceptions”.
